Results on 19 compounds are retold here after patent US20250134890A1, “ANTIMALARIAL HEXAHYDROPYRIMIDINE ANALOGUES” (UCB BIOPHARMA SRL, priority 2022, published 2025).

Each structure is given as a SMILES string. pIC50: −log10 of the molar value. Structures can show the parent of a compound that is named as a salt.

For one experiment, the system named is Plasmodium falciparum: 3D7 strain. The experiment is described as follows: P. falciparum 3D7 asexual blood stage assay (SYBR green readout). It counts as cell-based. The settings on record: Plasmodium falciparum, 3D7, Erythrocyte, 72 h, P. falciparum 3D7 in human erythrocytes, 72 h incubation, SYBR green fluorescence. In a few lines: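 3D7-infected erythrocytes (5% haematocrit, 0.5% parasitaemia) were exposed 72 h at 37 °C under 1% O2/3% CO2 to a 20-point titration (50,000-15 nM final, 0.5% DMSO). Parasite DNA was read by SYBR green fluorescence after overnight lysis. Percent inhibition was set against mefloquine and DMSO, and EC50 came from a biphasic two-site fit.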
Consider `C[C@H]1C[C@@H](N2C(=N)N[C@](C)(c3cccc(-c4ccn[nH]4)c3Cl)CC2=O)CCO1` [Example 45, (6S)-6-[2-Chloro-3-(1H-pyrazol-5-yl)phenyl]-2-imino-6-methyl-3-[(2S,4S)-2-methyltetrahydropyran-4-yl]hexahydropyrimidin-4-one trifluoroacetic acid salt], for which the pIC50 is 7.92.

`C[C@H]1C[C@@H](N2C(=N)N[C@](C)(c3cccc(-c4ccccc4Cl)c3Cl)CC2=O)CCO1` [Example 46, (6S)-6-[2-Chloro-3-(2-chloro-phenyl)phenyl]-2-imino-6-methyl-3-[(2S,4S)-2-methyltetrahydro-pyran-4-yl]hexahydropyrimidin-4-one trifluoroacetic acid salt]: the negative logarithm of the IC50 (pIC50) was 6.98.

Take `C[C@H]1C[C@@H](N2C(=N)N[C@](C)(c3cccc(-c4c(F)cccc4F)c3Cl)CC2=O)CCO1` [Example 47, (6S)-6-[2-Chloro-3-(2,6-difluoro-phenyl)phenyl]-2-imino-6-methyl-3-[(2S,4S)-2-methyltetrahydro-pyran-4-yl]hexahydropyrimidin-4-one trifluoroacetic acid salt]: the pIC50 is 7.36.

Regarding `C[C@H]1C[C@@H](N2C(=N)N[C@](C)(c3cccc(-c4cccc(C(F)(F)F)c4)c3Cl)CC2=O)CCO1` [Example 48, (6S)-6-{2-Chloro-3-[3-(trifluoro-methyl)phenyl]phenyl}-2-imino-6-methyl-3-[(2S,4S)-2-methyl-tetrahydropyran-4-yl]hexahydro-pyrimidin-4-one trifluoroacetic acid salt], the negative logarithm of the IC50 (pIC50) was 7.18.

Regarding `C[C@H]1C[C@@H](N2C(=N)N[C@](C)(c3cccc(-c4cccnc4)c3Cl)CC2=O)CCO1` [Example 49, (6S)-6-[2-Chloro-3-(pyridin-3-yl)-phenyl]-2-imino-6-methyl-3-[(2S,4S)-2-methyltetrahydropyran-4-yl]hexahydropyrimidin-4-one trifluoroacetic acid salt], the negative logarithm of the IC50 (pIC50) is 7.52.

The compound `C[C@H]1C[C@@H](N2C(=N)N[C@](C)(c3cccc(-c4cccc(F)c4F)c3Cl)CC2=O)CCO1` [Example 50, (6S)-6-[2-Chloro-3-(2,3-difluoro-phenyl)phenyl]-2-imino-6-methyl-3-[(2S,4S)-2-methyltetrahydro-pyran-4-yl]hexahydropyrimidin-4-one trifluoroacetic acid salt] gave a pIC50 of 7.08.

`C[C@H]1C[C@@H](N2C(=N)N[C@](C)(c3cccc(-c4ccc(F)cc4F)c3Cl)CC2=O)CCO1` [Example 51, (6S)-6-[2-Chloro-3-(2,4-difluoro-phenyl)phenyl]-2-imino-6-methyl-3-[(2S,4S)-2-methyltetrahydro-pyran-4-yl]hexahydropyrimidin-4-one trifluoroacetic acid salt] showed a pIC50 of 7.02.

For the compound `Cc1cc(-c2cccc([C@]3(C)CC(=O)N([C@H]4CCO[C@@H](C)C4)C(=N)N3)c2Cl)n(C)n1` [Example 52, (6S)-6-[2-Chloro-3-(2,5-dimethyl-pyrazol-3-yl)phenyl]-2-imino-6-methyl-3-[(2S,4S)-2-methyl-tetrahydropyran-4-yl]hexahydro-pyrimidin-4-one trifluoroacetic acid salt], the pIC50 is 6.36.

For `C[C@H]1C[C@@H](N2C(=N)N[C@](C)(c3cccc(-c4cccc(-c5ccn[nH]5)c4)c3Cl)CC2=O)CCO1` [Example 53, (6S)-6-{2-Chloro-3-[3-(1H-pyrazol-5-yl)phenyl]phenyl}-2-imino-6-methyl-3-[(2S,4S)-2-methyl-tetrahydropyran-4-yl]hexahydro-pyrimidin-4-one trifluoroacetic acid salt], the negative-log IC50 (pIC50) is 7.60.

As for `C[C@H]1C[C@@H](N2C(=N)N[C@](C)(c3cccc(-c4cnoc4)c3Cl)CC2=O)CCO1` [Example 54, (6S)-6-[2-Chloro-3-(isoxazol-4-yl)-phenyl]-2-imino-6-methyl-3-[(2S,4S)-2-methyltetrahydropyran-4-yl]hexahydropyrimidin-4-one trifluoroacetic acid salt], the negative-log IC50 (pIC50) was 7.38.

In the case of `C[C@H]1C[C@@H](N2C(=N)N[C@](C)(c3cccc(-c4ccc(Cl)nc4)c3Cl)CC2=O)CCO1` [Example 55, (6S)-6-[2-Chloro-3-(6-chloro-pyridin-3-yl)phenyl]-2-imino-6-methyl-3-[(2S,4S)-2-methyl-tetrahydropyran-4-yl]hexahydro-pyrimidin-4-one trifluoroacetic acid salt], the negative-log IC50 (pIC50) was 7.96.

`C[C@H]1C[C@@H](N2C(=N)N[C@](C)(c3cccc(-c4cccc5cnn(C)c45)c3Cl)CC2=O)CCO1` [Example 56, (6S)-6-[2-Chloro-3-(1-methyl-indazol-7-yl)phenyl]-2-imino-6-methyl-3-[(2S,4S)-2-methyl-tetrahydropyran-4-yl]hexahydro-pyrimidin-4-one trifluoroacetic acid salt] showed a pIC50 of 7.37.

`C[C@H]1C[C@@H](N2C(=N)N[C@](C)(c3cccc(-c4ccncc4Cl)c3Cl)CC2=O)CCO1` [Example 57, (6S)-6-[2-Chloro-3-(3-chloro-pyridin-4-yl)phenyl]-2-imino-6-methyl-3-[(2S,4S)-2-methyl-tetrahydropyran-4-yl]hexahydro-pyrimidin-4-one trifluoroacetic acid salt] had a pIC50 of 7.21.

Consider `COc1cncc(-c2cccc([C@]3(C)CC(=O)N([C@H]4CCO[C@@H](C)C4)C(=N)N3)c2Cl)c1` [Example 58, (6S)-6-[2-Chloro-3-(5-methoxy-pyridin-3-yl)phenyl]-2-imino-6-methyl-3-[(2S,4S)-2-methyl-tetrahydropyran-4-yl]hexahydro-pyrimidin-4-one trifluoroacetic acid salt], for which the pIC50 is 6.91.

For the compound `COc1cc(-c2cccc([C@]3(C)CC(=O)N([C@H]4CCO[C@@H](C)C4)C(=N)N3)c2Cl)ccn1` [Example 59, (6S)-6-[2-Chloro-3-(2-methoxy-pyridin-4-yl)phenyl]-2-imino-6-methyl-3-[(2S,4S)-2-methyl-tetrahydropyran-4-yl]hexahydro-pyrimidin-4-one trifluoroacetic acid salt], the negative-log IC50 (pIC50) is 7.21.

Take `C[C@H]1C[C@@H](N2C(=N)N[C@](C)(c3cccc(-c4ccc(C#N)cc4)c3Cl)CC2=O)CCO1` [Example 60, 4-(2-Chloro-3-{(4S)-2-imino-4-methyl-1-[(2S,4S)-2-methyl-tetrahydropyran-4-yl]-6-oxo-hexahydropyrimidin-4-yl}phenyl)-benzonitrile trifluoroacetic acid salt]: the negative logarithm of the IC50 (pIC50) is 6.53.

The same experiment, now with this note: Plasmodium falciparum, Erythrocyte; P. falciparum 3D7 in human erythrocytes, 72 h incubation, SYBR green fluorescence; read-out: IC50.
On to `CN1CCC(N2C(=N)N[C@](C)(c3cccc(-c4cccc(Cl)c4)c3Cl)CC2=O)CC1` [Example 90, (6S)-6-[2-Chloro-3-(3-chloro-phenyl)phenyl]-2-imino-6-methyl-3-(1-methylpiperidin-4-yl)-hexahydropyrimidin-4-one], for which the negative-log IC50 (pIC50) was 6.91.

Turning to `CN1CCC(N2C(=N)N[C@](C)(c3cccc(-c4ccc(OC(F)(F)F)cc4Cl)c3Cl)CC2=O)CC1` [Example 91, (6S)-6-{2-Chloro-3-[2-chloro-4-(trifluoromethoxy)phenyl]phenyl}-2-imino-6-methyl-3-(1-methyl-piperidin-4-yl)hexahydropyrimidin-4-one], the pIC50 was 5.19.

Consider `CN1CCC(N2C(=N)N[C@](C)(c3cccc(-c4cc(Cl)ccc4Cl)c3Cl)CC2=O)CC1` [Example 92, (6S)-6-[2-Chloro-3-(2,5-dichloro-phenyl)phenyl]-2-imino-6-methyl-3-(1-methylpiperidin-4-yl)-hexahydropyrimidin-4-one], for which the pIC50 was 7.30.

Broadly, the pIC50 is the IC50 on a negative log10 scale, so that one unit is a factor of ten.
